In patent publication US20220040280A1, “INHIBITORS AND USES THEREOF” (UNIVERSITY OF CANBERRA, priority 2016, published 2022):
Entries after “also recorded” stand apart in the source; their conditions may differ. Residues, ends and D or L forms follow the SMILES beside them. *: point of attachment. Myristoyl = CCCCCCCCCCCCCC(=O)*

Assays:
SNAIL [1] = assay: Nuclear SNAIL in MDA-MB-231 cells treated with LSD1 inhibitors, confocal microscopy; assay type: cell-based, human; conditions: FIG. 30
Procedure: (§1) Confocal laser scanning microscopy was performed on either MDA-MB-231 cells treated with vehicle alone or MCF7 cells treated with vehicle alone or PMA for 60 h, and subsequently treated with a test inhibitor or vehicle alone. Test inhibitors include LSD1 siRNA or LSD1 catalytic inhibitors NCD36 (2-[N-(4-phenylbenzenecarbonyl)]amino-6-(trans-2-phenylcyclopropan-1-amino)-N-(3-methylbenzyl)hexanamide hydrochloride) or pargyline (Parg). Cells were fixed with 3.7% formaldehyde and permeabilized with 2% Triton-X-100, and then probed with a primary mouse antibody to LSD1 and a primary goat antibody to SNAIL, respectively, followed by the corresponding secondary antibodies conjugated to Alexa-Fluor 488 and […], respectively. TNFI values for MDA-MB-231, non-stimulated MCF7 and stimulated MCF7 cells were calculated. Data shown represent the mean±SE for at least 20 individual cells.

SNAIL [2] = assay: Nuclear SNAIL in MCF7 cells treated with LSD1 inhibitors, confocal microscopy; assay type: cell-based, human; conditions: MCF7 cells stimulated with PMA for 60 hours, FIGS. 28 and 29
Procedure: as §1

LSD1 [3] = target: T1, LSD1 (Homo sapiens, UniProt O60341); assay: Nuclear LSD1 in MDA-MB-231 cells treated with LSD1 inhibitors, confocal microscopy; assay type: cell-based; conditions: FIG. 30
T1 construct: endogenous in cells; host or cells: MCF7 (non-stimulated or PMA-stimulated) and MDA-MB-231 breast cancer cells
Procedure: as §1

LSD1 [4] = target: T1, LSD1; assay: Nuclear LSD1 in MCF7 cells treated with LSD1 inhibitors, confocal microscopy; assay type: cell-based; conditions: MCF7 cells stimulated with PMA for 60 hours, FIGS. 28 and 29
Procedure: as §1

cytokeratin = conditions: CTCs from two metastatic breast cancer patient liquid biopsies, FIG. 16
Procedure: (§5) Cells were permeabilised by incubating with 2% Triton X-100 for 20 min. Cells were probed with either rabbit antibodies to LSD1s111p (Merck ABE1462), EGFR (AB2430), MET (ab51067), PD-L1 (sc-50298), goat antibodies to PD-L1 (sc-19091), SC-14033), (sc-19096), mouse antibodies to Cytokeratin (Miltenyi 130-090-866), CSV (Abnova H00007431-M08), vimentin (SC-6260) followed by visualisation with secondary anti mouse Alexa-Fluor 568 (A10037), secondary anti rabbit Alexa-Fluor 488 (A21206) or secondary anti goat Alexa-Fluor 633 (A21082). Cover slips were mounted on glass microscope slides with ProLong Diamond Antifade© reagent (Life Technologies). Antibody staining was localised by confocal laser scanning microscopy. Single 0.5 μm sections were obtained using a Nikon x 60 oil immersion lens on the Nikon C1 plus confocal system running NIS-Elements AR 3.2 software. […] Digital confocal images were analysed using ImageJ software (ImageJ, NIH, Bethesda, Md., USA) to determine the nuclear/cytoplasmic fluorescence ratio (Fn/c) using the equation: Fn/c=(Fn−Fb)/(Fc−Fb), where Fn is nuclear fluorescence, Fc is cytoplasmic fluorescence, and Fb is background fluorescence or the Total Nuclear Fluorescence (TNFI), the Total Cytoplasmic Fluorescence (TCFI) or Total cell fluorescence. […] Florescence intensity was also measured in a minimum of n=10 cells for each sample set. […]

LSD1s111p = target: T2, LSD1s111p (Homo sapiens, UniProt O60341); assay: Confocal microscopy of LSD1s111p in patient circulating tumor cells; assay type: cell-based; conditions: CTCs from two metastatic breast cancer patient liquid biopsies, FIG. 16
T2 construct: endogenous in cells; host or cells: circulating tumor cells from metastatic breast cancer patient blood
From the text: (§2) Cells were probed with either rabbit antibodies to LSD1s111p (Merck ABE1462), EGFR (AB2430), MET (ab51067), PD-L1 (sc-50298), goat antibodies to PD-L1 (sc-19091), SC-14033), (sc-19096), mouse antibodies to Cytokeratin (Miltenyi 130-090-866), CSV (Abnova H00007431-M08), vimentin (SC-6260) followed by visualisation with secondary anti mouse Alexa-Fluor 568 (A10037), secondary anti rabbit Alexa-Fluor 488 (A21206) or secondary anti goat Alexa-Fluor 633 (A21082).

PD-L2 = conditions: CTCs from two metastatic breast cancer patient liquid biopsies, FIG. 16
Procedure: as §5

SNAIL [5] = conditions: CTCs from metastatic breast cancer patients, in all but one patient, FIG. 17
Procedure: as §5

PD-L1 [6] = conditions: CTCs from metastatic breast cancer patients, in all but one patient, FIG. 17
Procedure: as §5

[7] = system: LSD1 phosphorylated at serine 111 (LSD1s111p); assay: LSD1s111p in MDA-MB-231 cells treated with PKC inhibitors, confocal microscopy; assay type: cell-based, human; conditions: FIG. 26
Procedure: (§3) Confocal laser scanning microscopy was performed on either MDA-MB-231 cells treated with vehicle alone or MCF7 cells treated with vehicle alone or PMA for 60 hours. To assess the effect of the PKC inhibitors, C27 (Compound 27; (R)-2-((S)-4-(3-chloro-5-fluoro-6-(1H-pyrazolo[3,4-b]pyridine-3-yl)pyridine-2-yl)piperazin-2-yl)-3-methylbutan-2-ol; see Jimenez et al. (2013) J. Med. Chem., 56(5): 1799-1810) or bisindolylmaleimide (BIM), cells were then treated with C27, BIM or vehicle. Cells were fixed with 3.7% formaldehyde and permeabilized with 2% Triton-X-100, and were then probed with primary rabbit antibody to PKC-θ and a primary mouse antibody to LSD1 or LSD1 phosphorylated at serine 111 (LSD1s111p), respectively, followed by the corresponding secondary antibody conjugated to Alexa-Fluor 488 or Alexa-Fluor 568. Total nuclear fluorescence (TNFI) values for non-stimulated and stimulated MCF7 and MDA-MB-231 cells were calculated. […] The plot-profile feature of ImageJ was used to plot the fluorescence signal intensity along a single line spanning the nucleus (n=5 lines per nucleus, 5 individual cells). The average fluorescence signal intensity for the indicated pair of antibodies was plotted for each point on the line with SE. […] The PCC was determined for each plot profile, which indicates the strength of relation between the two fluorochrome signals for at least 20 individual cells ±SE. […]

[8] = system: LSD1 phosphorylated at serine 111 (LSD1s111p); assay: LSD1s111p in MCF7 cells treated with PKC inhibitors, confocal microscopy; assay type: cell-based, human; conditions: FIG. 26
Procedure: as §3

[9] = target: T3, LSD1 phosphorylated at serine 111 (LSD1s111p) (Homo sapiens, UniProt O60341); assay: Confocal microscopy of LSD1s111p in MCF7 cells treated with peptide inhibitors; assay type: cell-based; conditions: stimulated and non-stimulated MCF7 cells, relative to control, FIG. 4
T3 construct: endogenous in cells; host or cells: MCF7 (non-stimulated or PMA-stimulated) and MDA-MB-231 breast cancer cells
Procedure: as §2
(§4) MDA-MB-231 or MCF7 cells were treated with one of L1, L2 or L3 and a control. Cells were then fixed with 3.7% formaldehyde and permeabilized with 2% Triton-X-100, then probed with a primary mouse antibody against LSD1 or a primary rabbit antibody against PD-L1, EGFR or MET, followed by visualization with a secondary goat antibody to mouse or rabbit immunoglobulins conjugated to Alexa-Fluor 488. Confocal laser scanning microscopy was used to measure the Fn/c (ratio of nuclear to cytoplasmic fluorescent intensity) ratio of LSD1 with Fiji-imageJ or the total nuclear fluorescence of PD-L1, EGFR or MET. Values are plotted with significant differences indicated using the Mann-Whitney T-test, with at least 20 cells counted per sample. Representative images for each treatment are shown.

PD-L1 [10] = assay: Confocal microscopy of PD-L1 in MDA-MB-231 cells treated with peptide inhibitors; assay type: cell-based, human
Procedure: as §2, §4

[11] = target: T3, LSD1 phosphorylated at serine 111 (LSD1s111p); assay: Confocal microscopy of LSD1s111p in MDA-MB-231 cells treated with peptide inhibitors; assay type: cell-based; conditions: relative to control, FIG. 4
Procedure: as §2, §4

EGFR = assay: Confocal microscopy of EGFR in MDA-MB-231 cells treated with peptide inhibitors; assay type: cell-based, human; conditions: in comparison to control, FIG. 23
Procedure: as §4

MDA-MB-231 cells = conditions: 100 μM, FIG. 21
Procedure: (§6) 5×10^4 MCF7 or MDA-MB-231 cells were seeded with 1 mL of complete DMEM in 12 well plates overnight. […] Samples were harvested by trypsinisation followed by washing with DPBS containing 2% HI-FBS. FACS staining were performed using anti-human CD44-APC, anti-human CD24-PE, Hoechst, and anti-human EpCAM antibody cocktails. Data was collected from a BD FACSLSR-II flow cytometer. Treestar FlowJo was used for data analysis.

MCF7 cells = conditions: PMA stimulated MCF7 cells, 50 μM and 100 μM tested, FIG. 20
Procedure: as §6

LSD1 [12] = target: T1, LSD1; assay: LSD1 nuclear translocation in MDA-MB-231 cells, confocal microscopy; assay type: cell-based; conditions: FIG. 19 and FIG. 31
Procedure: as §4
Confocal laser scanning microscopy was performed on MDA-MB-231 cells treated with a LSD1 peptide inhibitor, L1, L2 or L3, or vehicle alone. Cells were fixed with 3.7% formaldehyde and permeabilized with 2% Triton-X-100, and then probed with a primary mouse antibody to LSD1, followed by the corresponding secondary antibody conjugated to Alexa-Fluor 488. Confocal laser scanning microscopy was used to determine the Fn/c ratio of LSD1 with image-J. Values are plotted with significant differences indicated. Data shown represent the mean±SE for at least 20 individual cells.

PD-L1 [13] = assay: Confocal microscopy of PD-L1 in MCF7 cells treated with peptide inhibitors; assay type: cell-based, human
Procedure: as §2, §4

MET = assay: Confocal microscopy of MET in MDA-MB-231 cells treated with peptide inhibitors; assay type: cell-based, human; conditions: in comparison to control, FIG. 24
Procedure: as §4

Compound: Cc1cccc(CNC(=O)C(CCCCN[C@@H]2C[C@H]2c2ccccc2)NC(=O)c2ccc(-c3ccccc3)cc2)c1.Cl (relative stereo) [NCD36, 2-[N-(4-phenylbenzenecarbonyl)]amino-6-(trans-2-phenylcyclopropan-1-amino)-N-(3-methylbenzyl)hexanamide hydrochloride]
- nuclear fluorescence signal of SNAIL (SNAIL [1]): significantly abrogated
- nuclear fluorescence signal of SNAIL (SNAIL [2]): significantly abrogated
- nuclear fluorescence signal of LSD1 (LSD1 [3]): significantly abrogated
- nuclear fluorescence signal of LSD1 (LSD1 [4]): significantly abrogated

Compound: C#CCN(C)Cc1ccccc1 [Pargyline, pargyline]
- expression of cytokeratin (TCFI) (cytokeratin): significant knockdown
- expression of LSD1s111p (TCFI) (LSD1s111p): significant knockdown
- nuclear fluorescence signal of SNAIL (SNAIL [1]): significantly abrogated
- expression of PD-L2 (TCFI) (PD-L2): significant knockdown
- SNAIL expression (total cell fluorescence) (SNAIL [5]): significant knockdown
- nuclear fluorescence signal of SNAIL (SNAIL [2]): significantly abrogated
- nuclear fluorescence signal of LSD1 (LSD1 [3]): significantly abrogated
- nuclear fluorescence signal of LSD1 (LSD1 [4]): significantly abrogated
- PD-L1 expression (total cell fluorescence) (PD-L1 [6]): significant knockdown

Compound: CC(C)[C@@](C)(O)[C@@H]1CN(c2nc(-c3n[nH]c4ncccc34)c(F)cc2Cl)CCN1 [Peptide C27, (R)-2-((S)-4-(3-chloro-5-fluoro-6-(1H-pyrazolo[3,4-b]pyridine-3-yl)pyridine-2-yl)piperazin-2-yl)-3-methylbutan-2-ol]
- LSD1 phosphorylation (LSD1s111p, TNFI) [7]: significantly abrogated
- LSD1 phosphorylation (LSD1s111p, TNFI) [8]: significantly abrogated

Compound: CCCCCCCCCCCCCC(=O)N[C@@H](CCCNC(=N)N)C(=O)N[C@@H](CCCNC(=N)N)C(=O)N[C@H](C(=O)N[C@@H](C)C(=O)N[C@@H](CCCNC(=N)N)C(=O)N[C@@H](CCCNC(=N)N)C(=O)N[C@@H](CCCCN)C(=O)N[C@@H](CCCNC(=N)N)C(=O)N[C@@H](C)C(=O)N[C@@H](CCCCN)C(=O)N[C@H](C(=O)O)C(C)C)[C@@H](C)O [Peptide L2, Myristoyl-RRTARRKRAKV-OH] (Myristoyl-RRTARRKRAKV-OH)
- nuclear expression of LSD1s111p (TNFI) [9]: significantly abrogated
- cytoplasmic/surface expression of PD-L1 (TCFI) (PD-L1 [10]; MDA-MB-231 cells, FIG. 6): significantly inhibited
- expression of nuclear PD-L1 (TNFI) (PD-L1 [10]; MDA-MB-231 cells, FIG. 6): significantly abrogated
- PD-L1 nuclear expression (PD-L1 [10]; MDA-MB-231 cells, in comparison to the control, FIG. 22 (50 μM and 100 μM)): abrogated
- Fn/c ratio (nuclear bias) of PD-L1 (PD-L1 [10]; peptide treated MDA-MB-231 cells): strongly nuclear
- nuclear expression of LSD1s111p (TNFI) [11]: significantly abrogated
- EGFR nuclear expression (TNFI) (EGFR): reduction
- cancer stem cell formation (MDA-MB-231 cells): significant reduction
- cancer stem cell formation (MCF7 cells): inhibited
- nuclear translocation of LSD1 (Fn/c) (LSD1 [12]): inhibited; also recorded: clearly abrogated
- abrogation of nuclear PD-L1 expression (PD-L1 [13]; epithelial non-stimulated MCF7 cells, compared with stimulated cells): lessened
- Fn/c ratio (nuclear bias) of PD-L1 (PD-L1 [13]; peptide treated MCF7 cells): strongly nuclear
- cytoplasmic/surface expression of PD-L1 (TCFI) (PD-L1 [13]; stimulated MCF7 cells, FIG. 5): significantly inhibited
- expression of nuclear PD-L1 (TNFI) (PD-L1 [13]; stimulated, mesenchymal MCF7 cells, FIG. 5): significantly abrogated
- MET nuclear expression (TNFI) (MET): significant abrogation

Compound: bisindolylmaleimide [BIM]
- LSD1 phosphorylation (LSD1s111p, TNFI) [7]: significantly abrogated
- LSD1 phosphorylation (LSD1s111p, TNFI) [8]: significantly abrogated
